What was measured:
RDW23166.1 = conditions: acetyl-CoA co-substrate presumed; conditions in supplement
LYC1 = biological target: T1, LYC1 (Yarrowia lipolytica, UniProt P41929); assay: LC-MS of dansylated product; format: biochemical; conditions: with acetyl-CoA
T1 sequence (P41929 1-392): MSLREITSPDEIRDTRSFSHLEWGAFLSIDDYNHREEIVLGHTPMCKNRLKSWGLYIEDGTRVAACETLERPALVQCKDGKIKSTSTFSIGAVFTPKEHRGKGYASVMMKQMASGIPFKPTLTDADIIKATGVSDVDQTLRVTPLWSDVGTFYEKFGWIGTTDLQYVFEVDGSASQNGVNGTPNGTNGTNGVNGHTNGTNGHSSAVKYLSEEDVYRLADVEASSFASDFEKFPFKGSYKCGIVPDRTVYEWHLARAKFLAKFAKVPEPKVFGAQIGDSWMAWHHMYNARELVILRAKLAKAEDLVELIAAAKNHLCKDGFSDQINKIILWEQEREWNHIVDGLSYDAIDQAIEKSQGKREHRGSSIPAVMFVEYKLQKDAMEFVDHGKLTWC

NCCCC[C@H](N)C(=O)O [lysine]
Km (RDW23166.1): 6.21 mM | LC-MS of dansylated product (LYC1): confirming that LYC1 catalyzes lysine acetylation specifically with acetyl-CoA as the substrate

Source: article PMC12549914 (Nature Communications, 2025)
